Results reported in US6485970B1, “Immunointeractive antibody” (priority 1997, dated 2002).
Values belong to the compound of their own block, whether it stands above or below them. Ends that are not written are not given here.

Experiments:
[1] = tested on: sensory nerves; test: Rat footpad blister model, vascular response to antidromic electrical stimulation of the sciatic nerve; assay type: in vivo
Procedure: (§1) A vacuum-induced blister model in the footpad of anaesthetised rats is used to induce an inflammatory response in naive skin by (a) electrical stimulation (ES) of the distal end of the cut sciatic nerve at 20 v, 5 Hz, […] for 1 min or (b) superfusion of the sensory neuropeptide; substance P (SP) over the blister base.
(§2) Male outbred Sprague-Dawley rats with an average weight of 250-300 gm were used (n=6-8 per group). Anaesthesia was induced with pentobarbitone sodium (Nembutal, 60 mg/kg, i.p.). To ensure that rats remained under a constant stage of surgical anaesthesia additional doses (15 mg/kg) were administered during the experiment. The absence of an eyelash reflex was used as an indication of the level of unconciousness. At the end of the experiment, animals were killed by barbituate overdose (100 mg/kg).
A blister was induced on the hind footpad on the anaesthetised rat by applying a vacuum pressure of −40 kPa to the glabrous skin for approximately 30 mins, using a metal suction cap heated to 40° C. by an attached heating element.
When a blister was established, the surface epithelium was removed and a perspex chamber with inlet and outlet ports was fixed over the blister base. Perfusion of the drugs over the blister was maintained at 4 ml/h by a peristaltic pump (Microperpex S, LKB, Sweden). Both perfusion and body temperature were kept at 37° C.
An initial 15 min equilibration with Ringer's solution (NaCl 9.0 g, KCl 0.42 g, CaCl2 0.48 g, NaHCO3 0.2 g in 1000 ml dH2O) was allowed before each experiment, during which time a stable baseline was established.
The right sciatic nerve in the mid-thigh region of the anaesthetised rat was dissected free and cut as proximally as possible. The distal portion of the cut nerve was placed over bipolar platinum electrodes and immersed in liquid paraffin warmed to 37° C. and contained in a bath that was formed by raising the skin flaps of the wound. The distal end of the sciatic nerve was stimulated with a Grass S48 stimulator at 20 V, 5 Hz, 0.5 ms square waves for 1 min. These parameters were previously shown to stimulate sensory nerves with subsequent release of sensory peptides.
(§3) For measurement of local blood flow, a probe attached to a laser Doppler flowmeter (Periflux, PF2B, Perimed, Sweden) was inserted vertically through a third port in the perspex chamber above the blister base. Relative blood flow was recorded over time on a chart recorder and measured as the surface area under the response curve in cm^2 using a digital planimeter.
(§4) Vasodilator responses were measured as the area under the response curve (cm^2) using a digital planimeter (Tamaya, Japan). For vascular responses to ES the area was measured for 20 min following stimulation. […] Results are expressed as mean±SEM. […]

[2] = human, in vivo
[3] = tested on: sensory nerves; test: Rat footpad blister model, vascular response to substance P perfusion; assay type: in vivo; conditions: SP 1 μM alone
Procedure: as §1
as §2, with “At the end of the experiment, animals were killed by barbituate overdose (100 mg/kg).” left out
as §3, §4

[4] = tested on: BA-TABM; test: Competitive inhibition ELISA, BA-TABM against plate bound BA-HSA; assay type: binding, human; conditions: competitor pre-incubated with BA-TABM
Procedure: FIG. 13 is a graphical representation of competitive inhibition ELISA between BA-TABM and various haptens. Purified BA-TABM was diluted and pre-mixed with various haptens. […] The amount of TABM binding as determined using the mouse monoclonal anti-human TABM antibody (MG3C9-1A12). [drawing 12]
FIG. 14 is a graphical representation showing inhibition ELISA between BA-TABM and various chemicals. Purified BA-TABM was diluted and pre-mixed with various chemicals. […] The amount of TABM binding was determined using the mouse monoclonal anti-human TABM antibody (MG3C9-1A12). [drawing 13]
The competing antigens or haptens were serially diluted (½) in the diluted serum to give a range equivalent to 5000-312.5 ng per well. […] The plate was then incubated for 60 minutes at 37° C. After washing, mouse anti-human TABM was diluted ( 1/2000), added to the plate and incubated for 90 minutes at 37° C., followed by sheep anti-mouse immunoglobulins ( 1/1000). The assay was then completed as previously described. The same ELISA conditions were used with non-bound organic molecules, except that pre-incubation of competing molecules with BA-TABM and serum was for 60 minutes.

Compound: COc1cc(CNC(=O)CCCC/C=C/C(C)C)ccc1O [capsaicin, reference compound]
area of the vascular response to ES ([1]; capsaicin-pretreated rats (50 mg/kg s.c., neonatal), no TGF-β): 11.7±1.1 cm^2

Compound: Cc1ccccc1 [toluene]
Digit Symbol, Post Challenge Mean [2]: 40.00 No. of correct items
Focal Length, Post Challenge Mean [2]: 29.53 cms
Letter Cancellation [2]: 63% correct
Letter Cancellation Time, Post Challenge Mean [2]: 4.79 min
Letter Cancellation time [2]: (5′40″)
Letter Cancellation, Post Challenge Mean [2]: 77.56 % Correct
Prose Memory (delayed), Post Challenge Mean [2]: 8.77 No. Items recalled
Prose Memory (immediate), Post Challenge Mean [2]: 7.36 No. Items recalled
Prose: Delayed Recall [2]: 6.5 items
Prose: Immediate Recall [2]: 6 items
STROOP (colour), Post Challenge Mean [2]: 74.43 No. seconds/100 words
STROOP (colour-word), Post Challenge Mean [2]: 119.73 No. seconds/100 words
STROOP (word), Post Challenge Mean [2]: 58.93 No. seconds/100 words
Stroop: Colour word [2]: 161 s
Stroop: Colours [2]: 90 s
Stroop: Words [2]: 75 s
Symbol Digit [2]: 32 items

Compound: Substance P (RPKPQQFFGLM; ends and bridges not checked; UniProt P20366 58-68, looked up) [SP, sensory neuropeptide]
vasodilatation response to SP, area under curve 30 min [3]: 44.1±3.9 cm^2

Compound: TGF-β
area of the vascular response to ES in presence of TGF-β ([1]; capsaicin-pretreated rats, TGF-β 10 pg/ml): 12.1±1.0 cm^2
effect on baseline blood flow ([1]; control rats, TGF-β 10 pg/ml): did not alter the baseline
area under the vascular response curve to ES, 20 min ([1]; control rats, TGF-β 10 pg/ml perfused 10 min prior to ES and post stimulation): 31.44±3.2 cm^2

inhibition of BA-TABM binding to plate bound BA-HSA [4]: Weaker inhibition
Compound: TMA-BSA: trimellitic acid (TMA) protein conjugate
